We go through four compounds from patent publication US20050186237A1, “Bird repellent” (priority 2002, published 2005).

For one assay, the system named is wild possums. Description: Palatability of treated baits at possum-specific bait stations. The format is in vivo, Trichosurus vulpecula. An excerpt:
(§1) To determine the palatability of baits to wild possums and wild rats, possum-specific bait stations and rat-specific bait stations were established in bush-pasture margin and forest habitats (see FIG. 1 and FIG. 2).
The possum-specific bait station (FIG. 1) is mounted on an elevated wire stake 4 with bait 2 attached in a perforated bag 1 at top of wire 4. A plastic disc 3 is used to stop rodents (not shown) climbing wire 4 has plasticine (not shown) on it to record animal activity.
(§2) The bait stations (FIGS. 1 and 2) enable determination of the response of possums or rats to bait 2. Plasticine 5 is used to record the presence (e.g. footprints, claw marks, bite marks) and species of animal present at the bait station.
(§3) In this example the repellence of neem (a known repellent), lime (a known repellent), anthraquinone and d-pulegone (compounds of the present invention) in cereal, carrot and paste baits are tested on wild possums and rats.
(§4) The following bait treatments are compared: • standard (solution of dye+water+0.1% cinnamon oil) • cinnamamide (solution of dye+water+0.5% cinnamamide) • neem (solution of dye+water+2% neem oil) • lime (solution of dye+water+2% agricultural lime) • anthraquinone (solution of dye+water+0.75% anthraquinone formulation). • d-pulegone (solution of dye+water+1% d-pulegone) • salt (solution of dye+water+salt (10% of total bait weight))
(§5) Treatments are applied to the cereal and carrot bait surface at a rate of 10% of total bait weight. The treatments are applied to the paste bait by mixing the solution through the bait, again at a rate of 10% of total bait weight.
(§6) The treatments are placed on the bait stations as described above and possum and rat activity measured.
(§7) The following bait treatments were compared (only carrot baits are compared): • standard (solution of dye+water+0.1% cinnamon oil) • anthraquinone 1 (solution of dye+water+1% anthraquinone formulation) • anthraquinone 2 (solution of dye+water+2% anthraquinone formulation) • d-pulegone 1 (solution of dye+water+1% d-pulegone) • d-pulegone 2 (solution of dye+water+2% d-pulegone) • combination 1 (solution of dye+water+1% anthraquinone formulation+1% d-pulegone) • combination 2 (solution of dye+water+2% anthraquinone formulation+2% d-pulegone) • salt (solution of dye+water+salt (10% of total bait weight))
(§8) All quantities given in percent by weight and all bait treatment, bait station set-up and subsequent measurement are as described in Example 1.

The next assay deals with wild rats. In words: Palatability of treated baits at rat-specific bait stations. The format is in vivo, Rattus spp. As for the experimental part: as §1
The rat-specific bait station (FIG. 2) is an approximately 60 mm diameter tube 6 with bait 2 placed in the centre and tube 6 is pinned to ground with holding stake 4. Plasticine 5 is added at either end of the tube 6 to record animal activity.
as §2, §3, §4, §5, §6, §7, §8

The next assay concerns wild sparrows. In words: Sparrow feed table dose response and combination test on treated wheat (Example 7). The format is in vivo. Conditions: FIGS. 6-8; result in words. The text has this:
Wild sparrow tests were used to determine the effect of the individual repellency compared with the combination repellency.
On sparrow feed tables, sparrows were offered a choice between control wheat and three doses of repellent treated wheat.

Another assay relates to brushtail possums. The following applies: Day et al, 2000; cited from earlier work.
The next assay deals with rats. Conditions: Day et al, 2000; cited from earlier work.
A further assay relates to several bird species. The following applies: 1% w/w concentration; including European starlings and northern bobwhites; cited from earlier work.
The test system of another assay is house sparrows. In words: Sparrow treated wheat choice test, 4-day periods (Example 8, Experiment 1). Conditions: mean daily percentage of wheat eaten over 4-day test periods; choice with plain wheat. The format is in vivo, Passer domesticus. The procedure: The feeding behavior of free-ranging house sparrows (Passer domesticus) presented wheat treated with anthraquinone paired with either a novel visual cue (blue dye), cinnamon oil (containing primarily olfactory cues), or d-pulegone (containing olfactory and taste cues), was recorded, to determine the suitability of repellent combinations for preventing non-target birds from consuming pesticides or other harmful substances.
Eight independent populations of house sparrows, were trained to eat plain hulled wheat from four identical food trays on feed tables.
In Experiment 1, sparrows were presented, for 4-day periods, with a choice between plain wheat, anthraquinone treated wheat, and two of the remaining repellent combinations (anthraquinone and cinnamon oil, anthraquinone and blue dye, anthraquinone and d-pulegone (at 0.5% wt or 2.0% wt concentrations)) until all sparrow populations had been exposed to each repellent.
The consumption of plain wheat and anthraquinone treated wheat was compared to the consumption of the repellent combinations every 24 hr.

Where [1] appears, read: Example 1, by bait treatment (cereal, carrot, paste baits), first exposure.
Setting [2] is: Example 1, by bait treatment, first exposure.
Setting [3] is: Example 1, by bait treatment, subsequent exposures.
The mark [4] stands for this setting: Example 2, carrot baits, first exposure.
Where [5] appears, read: Example 2, carrot baits, subsequent exposures.

Marks after values point to notes of the source that are not given here.

On to `CC(C)=C1CC[C@@H](C)CC1=O` [d-pulegone, d-Pulegone], for which the “Proportion of bait stations left untouched” value with wild possums (setting [1]) turned out to be 0.52; in the assay with wild possums (setting [3]) it was 0.30; in the assay with wild rats (setting [2]), 0.63; in the assay on wild rats (setting [3]) it was 0.55. Moreover, the “Proportion of bait stations with bait eaten when encountered” value stood at 0.87 in the assay on wild possums (setting [2]) and 0.98 in the assay with wild possums (setting [3]). Moreover, the “Proportion of bait stations eaten when encountered” value (“Proportion of bait stations eaten” below) in the assay with wild rats (setting [2]) was found to be 0.70; in the assay with wild rats (setting [3]) it was 0.75. Moreover, the “Amount of wheat eaten by sparrows relative to control wheat or single repellents” value in the assay on wild sparrows is “reduced the quantity of wheat eaten by sparrows on days 1, 3 and 4”. The “Acceptance of treated baits by possums” value in the assay with brushtail possums is reported as “readily take carrot baits”. In the assay on rats, the “Acceptance of treated baits by rats / wild rodents” value is “readily take carrot baits”. In addition, the Repellence of birds entry in the assay with several bird species is on record as “repel several bird species”.
As for `NC(=O)C=Cc1ccccc1` [Cinnamamide, cinnamamide], the “Proportion of bait stations left untouched” value with wild possums (setting [1]) came to 0.55; with wild possums (setting [3]) it was 0.29; in the assay on wild rats (setting [2]), 0.77; with wild rats (setting [3]), 0.66. The entries for the “Proportion of bait stations with bait eaten when encountered” value in the assay on wild possums (setting [2]) and with wild possums (setting [3]) were 0.71 and 0.95, respectively. Moreover, the “Proportion of bait stations eaten” value in the assay with wild rats (setting [2]) came to 0.67; with wild rats (setting [3]), 0.70.
Take `O=C1c2ccccc2C(=O)c2ccccc21` [Anthraquinone]: the “Proportion of bait stations left untouched” value was determined as 0.67 with wild possums (setting [1]), 0.35 in the assay with wild possums (setting [3]), 0.64 with wild rats (setting [2]) and 0.57 with wild rats (setting [3]). The entries for the “Proportion of bait stations with bait eaten when encountered” value in the assay on wild possums (setting [2]) and in the assay with wild possums (setting [3]) were 0.80 and 1.00, respectively. Further, the “Proportion of bait stations eaten” value was determined as 1.00 in the assay with wild rats (setting [2]) and 0.65 in the assay with wild rats (setting [3]). Further, in the assay with wild sparrows, the “Amount of wheat eaten by sparrows relative to control wheat or single repellents” value is “reduced the amount of wheat eaten by sparrows on days 3 and 4”. Besides, the “Wheat consumption, percentage of that offered” value with house sparrows came to 54%. The “Acceptance of treated baits by possums” value in the assay on brushtail possums was “readily eaten by possums”. Further, the “Acceptance of treated baits by rats / wild rodents” value in the assay on rats is recorded as “readily take anthraquinone treated baits from bait stations”.
In the case of Salt, the “Proportion of bait stations left untouched” value was 0.37 with wild possums (setting [1]); 0.29 with wild possums (setting [3]); 0.82 with wild possums (setting [4]); 0.30* in the assay with wild possums (setting [5]); 0.86 in the assay on wild rats (setting [2]); 0.72 in the assay on wild rats (setting [3]). The “Proportion of bait stations left untouched” value with wild rats (setting [4]) came to 0.18; in the assay on wild rats (setting [5]), 0.50. Also, the figures for the “Proportion of bait stations with bait eaten when encountered” value in the assay on wild possums (setting [2]) and with wild possums (setting [3]) were 0.30 and 0.38, respectively. Also, the “Proportion of bait stations eaten” value is recorded as 1.00 with wild possums (setting [4]); 0.43* in the assay on wild possums (setting [5]); 0.00 with wild rats (setting [2]); 0.16 in the assay on wild rats (setting [3]); 0.22 with wild rats (setting [4]); 0.33* with wild rats (setting [5]).
